For assay [1], the target named is T1, APH(3’)-IIb WT (Pseudomonas aeruginosa, UniProt Q9HWR2).
T1 sequence (Q9HWR2 1-268): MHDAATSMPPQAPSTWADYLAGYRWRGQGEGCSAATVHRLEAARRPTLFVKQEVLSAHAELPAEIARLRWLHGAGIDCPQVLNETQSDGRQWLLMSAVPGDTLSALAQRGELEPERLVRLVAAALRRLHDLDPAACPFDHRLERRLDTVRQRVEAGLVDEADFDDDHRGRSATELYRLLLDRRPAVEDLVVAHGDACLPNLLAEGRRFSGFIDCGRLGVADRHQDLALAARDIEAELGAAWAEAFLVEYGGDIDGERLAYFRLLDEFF
As to the kind of experiment: ITC. The assay is classed as binding.

Assay [2] has as its target T1, APH(3’)-IIb WT. As to the kind of experiment: biochemical.
In assay [3] the target is T2, APH(3’)-IIb WT (Pseudomonas aeruginosa, UniProt Q9HWR2, M95L).
T2 sequence (Q9HWR2 1-268 M95L): T1 sequence (Q9HWR2 1-268)
Nature of the assay: PK/LDH coupled assay. The class given is biochemical. As to conditions: 100 µM MgATP, Tris buffer pH 7.5, 25 °C.

Data on 11 compounds can be found in doi:10.1101/2025.03.30.646141v1 (biorxiv, 2025).

Molecules are shown by their SMILES.

What is called Kd is the equilibrium constant for the complex coming apart. A higher Kd goes with a looser complex. One may read the Km as the concentration of substrate that gives half-maximal velocity.

On to `Nc1ncnc2c1ncn2[C@@H]1O[C@H](COP(=O)(O)OP(=O)(O)O)[C@@H](O)[C@H]1O` [ADP], for which the Kd at APH(3’)-IIb WT [1] worked out at 4100 ± 500 nM.

As to `Nc1ncnc2c1ncn2[C@@H]1O[C@H](COP(=O)(O)OP(=O)(O)OP(=O)(O)O)[C@@H](O)[C@H]1O` [ATP], the Kd at APH(3’)-IIb WT [1] came to 10000 ± 700 nM. Take `CN[C@@H]1[C@@H](O)[C@@H](O[C@@H]2[C@@H](O)[C@H](O[C@H]3O[C@H]([C@@H](C)O)[C@@H](O)[C@H](O)[C@H]3N)[C@@H](N)C[C@H]2N)OC[C@]1(C)O` [Geneticin]: the affinity on APH(3’)-IIb WT [2], expressed as Kd, was 1590 ± 310 nM. As to `NCC[C@H](O)C(=O)N[C@@H]1C[C@H](N)[C@@H](O[C@H]2O[C@H](CN)[C@@H](O)[C@H](O)[C@H]2O)[C@H](O)[C@H]1O[C@H]1O[C@H](CO)[C@@H](O)[C@H](N)[C@H]1O` [amikacin], the Kd on APH(3’)-IIb WT [1] came to 177000 ± 22000 nM. In addition, the Km at APH(3’)-IIb WT [3] is 54.5 ± 21.5 µM.

Compound `CNC(C)[C@@H]1CC[C@@H](N)[C@@H](O[C@H]2[C@H](O)[C@@H](O[C@H]3OC[C@](C)(O)[C@H](NC)[C@H]3O)[C@H](N)C[C@@H]2N)O1` (stereo partly shown) [gentamicin] displayed a Kd at APH(3’)-IIb WT [2] of 59 ± 5 nM. As to `NC[C@H]1O[C@H](O[C@H]2[C@H](O)[C@@H](O[C@H]3O[C@H](CO)[C@@H](O)[C@H](N)[C@H]3O)[C@H](N)C[C@@H]2N)[C@H](O)[C@@H](O)[C@@H]1O` [kanamycin A], the Km at APH(3’)-IIb WT [3] is 0.17 ± 0.06 µM. `NC[C@H]1O[C@H](O[C@H]2[C@H](O)[C@@H](O[C@H]3O[C@H](CO)[C@@H](O)[C@H](N)[C@H]3O)[C@H](N)C[C@@H]2N)[C@H](N)[C@@H](O)[C@@H]1O` [kanamycin B]: the Kd at APH(3’)-IIb WT [1] was 2 ± 1 nM. Also, the Km at APH(3’)-IIb WT [3] stood at 0.05 ± 0.03 µM. On the same counts, the results for `NC[C@@H]1O[C@H](O[C@H]2[C@@H](O)[C@H](O[C@@H]3[C@@H](O)[C@H](N)C[C@H](N)[C@H]3O[C@H]3O[C@H](CN)[C@@H](O)[C@H](O)[C@H]3N)O[C@@H]2CO)[C@H](N)[C@@H](O)[C@@H]1O` [neomycin] are 12 ± 2 nM and 0.07 ± 0.06 µM. On the same counts, the results for `NC[C@@H]1O[C@H](O[C@H]2[C@@H](O)[C@H](O[C@@H]3[C@@H](O)[C@H](N)C[C@H](N)[C@H]3O[C@H]3O[C@H](CO)[C@@H](O)[C@H](O)[C@H]3N)O[C@@H]2CO)[C@H](N)[C@@H](O)[C@@H]1O` [paromomycin] are 173 ± 8 nM and 0.53 ± 0.21 µM. On the same counts, the results for `NC[C@H]1O[C@H](O[C@H]2[C@H](O[C@@H]3O[C@H](CO)[C@@H](O)[C@H]3O)[C@@H](O)[C@H](N)C[C@@H]2N)[C@H](N)[C@@H](O)[C@@H]1O` [ribostamycin] are 10 ± 1 nM and 0.21 ± 0.17 µM. Compound `NC[C@H]1O[C@H](O[C@H]2[C@H](O)[C@@H](O[C@H]3O[C@H](CO)[C@@H](O)[C@H](N)[C@H]3O)[C@H](N)C[C@@H]2N)[C@H](N)C[C@@H]1O` [tobramycin] had a Kd at APH(3’)-IIb WT [1] of 23 nM.
